# Measured values reported in ChEMBL document CHEMBL3885881, “DrugMatrix”.
# Organism: Rattus norvegicus
# Experiment: DrugMatrix - Regimen: Daily Repeat
# Assay type: toxicity, organism-based, Sprague-Dawley
# Design: regimen Daily Repeat, gender Male, age 6-8 weeks
# Details: in vivo, po, route oral GAVAGE, vehicle .5 % CMC; for BASOPHIL / EOSINOPHIL / ERYTHROCYTE COUNT / HEMATOCRIT / HEMOGLOBIN / LEUKOCYTE COUNT / LYMPHOCYTE / MEAN CORPUSCULAR HEMOGLOBIN / MEAN CORPUSCULAR HEMOGLOBIN CONCENTRATION / MEAN CORPUSCULAR VOLUME / MONOCYTE / NEUTROPHIL / PLATELET COUNT: tissue Blood; for ALANINE AMINOTRANSFERASE / ALBUMIN / ALKALINE PHOSPHATASE / ASPARTATE AMINOTRANSFERASE / BLOOD UREA NITROGEN / CHLORIDE / CHOLESTEROL / CREATINE PHOSPHOKINASE / CREATININE / GLUCOSE / PHOSPHORUS / POTASSIUM / SODIUM / TOTAL BILIRUBIN / TOTAL PROTEIN: tissue Plasma
# [1] = 0 mg/kg, 72 h, dose level Control, time 3 day
# [2] = 0 mg/kg, 120 h, dose level Control, time 5 day
# [3] = 45 mg/kg, 72 h, dose level Low, time 3 day
# [4] = 45 mg/kg, 120 h, dose level Low, time 5 day
smiles,measurement,setting,value
Nc1ccc(C(=O)O)c(O)c1 [AMINOSALICYLIC ACID],BASOPHIL,[1],0%
same,EOSINOPHIL,[1],0%
same,ERYTHROCYTE COUNT,[1],6.34 x10E6/uL
same,HEMATOCRIT,[1],37.62%
same,HEMOGLOBIN,[1],14.82 G/DL
same,LEUKOCYTE COUNT,[1],11.18 x10E3/uL
same,LYMPHOCYTE,[1],87.5%
same,MEAN CORPUSCULAR HEMOGLOBIN,[1],23.48 pg
same,MEAN CORPUSCULAR HEMOGLOBIN CONCENTRATION,[1],39.5 G/DL
same,MEAN CORPUSCULAR VOLUME,[1],59.45 fL
same,MONOCYTE,[1],1.67%
same,NEUTROPHIL,[1],10.83%
same,PLATELET COUNT,[1],1074.83 x10E3/uL
same,ALANINE AMINOTRANSFERASE,[1],36.5 u/L
same,ALBUMIN,[1],3.9 G/DL
same,ALKALINE PHOSPHATASE,[1],370.17 u/L
same,ASPARTATE AMINOTRANSFERASE,[1],63.17 u/L
same,BLOOD UREA NITROGEN,[1],16.83 mg/dL
same,CHLORIDE,[1],99.33 MEQ/L
same,CHOLESTEROL,[1],64.33 mg/dL
same,CREATINE PHOSPHOKINASE,[1],127 u/L
same,CREATININE,[1],0.55 mg/dL
same,GLUCOSE,[1],173.5 mg/dL
same,PHOSPHORUS,[1],10.08 mg/dL
same,POTASSIUM,[1],6.23 MEQ/L
same,SODIUM,[1],143.5 MEQ/L
same,TOTAL BILIRUBIN,[1],0.52 mg/dL
same,TOTAL PROTEIN,[1],6.35 G/DL
same,BASOPHIL,[2],0%
same,EOSINOPHIL,[2],0.17%
same,ERYTHROCYTE COUNT,[2],6.12 x10E6/uL
same,HEMATOCRIT,[2],37.08%
same,HEMOGLOBIN,[2],14.82 G/DL
same,LEUKOCYTE COUNT,[2],11.87 x10E3/uL
same,LYMPHOCYTE,[2],83.33%
same,MEAN CORPUSCULAR HEMOGLOBIN,[2],24.25 pg
same,MEAN CORPUSCULAR HEMOGLOBIN CONCENTRATION,[2],39.97 G/DL
same,MEAN CORPUSCULAR VOLUME,[2],60.65 fL
same,MONOCYTE,[2],1.5%
same,NEUTROPHIL,[2],15%
same,PLATELET COUNT,[2],1042.83 x10E3/uL
same,ALANINE AMINOTRANSFERASE,[2],46 u/L
same,ALBUMIN,[2],3.82 G/DL
same,ALKALINE PHOSPHATASE,[2],369.5 u/L
same,ASPARTATE AMINOTRANSFERASE,[2],65 u/L
same,BLOOD UREA NITROGEN,[2],16.33 mg/dL
same,CHLORIDE,[2],100.67 MEQ/L
same,CHOLESTEROL,[2],57.17 mg/dL
same,CREATINE PHOSPHOKINASE,[2],130 u/L
same,CREATININE,[2],0.53 mg/dL
same,GLUCOSE,[2],163.33 mg/dL
same,PHOSPHORUS,[2],9.53 mg/dL
same,POTASSIUM,[2],6.27 MEQ/L
same,SODIUM,[2],144.83 MEQ/L
same,TOTAL BILIRUBIN,[2],0.55 mg/dL
same,TOTAL PROTEIN,[2],6.32 G/DL
same,BASOPHIL,[3],0%
same,EOSINOPHIL,[3],0%
same,ERYTHROCYTE COUNT,[3],6.2 x10E6/uL
same,HEMATOCRIT,[3],36.9%
same,HEMOGLOBIN,[3],14.43 G/DL
same,LEUKOCYTE COUNT,[3],13.37 x10E3/uL
same,LYMPHOCYTE,[3],88%
same,MEAN CORPUSCULAR HEMOGLOBIN,[3],23.3 pg
same,MEAN CORPUSCULAR HEMOGLOBIN CONCENTRATION,[3],39.13 G/DL
same,MEAN CORPUSCULAR VOLUME,[3],59.6 fL
same,MONOCYTE,[3],0.33%
same,NEUTROPHIL,[3],11.67%
same,PLATELET COUNT,[3],1203.67 x10E3/uL
same,ALANINE AMINOTRANSFERASE,[3],39.33 u/L
same,ALBUMIN,[3],3.83 G/DL
same,ALKALINE PHOSPHATASE,[3],358.33 u/L
same,ASPARTATE AMINOTRANSFERASE,[3],67.33 u/L
same,BLOOD UREA NITROGEN,[3],15 mg/dL
same,CHLORIDE,[3],99.33 MEQ/L
same,CHOLESTEROL,[3],71.33 mg/dL
same,CREATINE PHOSPHOKINASE,[3],117 u/L
same,CREATININE,[3],0.53 mg/dL
same,GLUCOSE,[3],180 mg/dL
same,PHOSPHORUS,[3],10.37 mg/dL
same,POTASSIUM,[3],6.03 MEQ/L
same,SODIUM,[3],143 MEQ/L
same,TOTAL BILIRUBIN,[3],0.47 mg/dL
same,TOTAL PROTEIN,[3],6.27 G/DL
same,BASOPHIL,[4],0%
same,EOSINOPHIL,[4],0%
same,ERYTHROCYTE COUNT,[4],5.82 x10E6/uL
same,HEMATOCRIT,[4],35.1%
same,HEMOGLOBIN,[4],14.37 G/DL
same,LEUKOCYTE COUNT,[4],14.2 x10E3/uL
same,LYMPHOCYTE,[4],88%
same,MEAN CORPUSCULAR HEMOGLOBIN,[4],24.67 pg
same,MEAN CORPUSCULAR HEMOGLOBIN CONCENTRATION,[4],40.97 G/DL
same,MEAN CORPUSCULAR VOLUME,[4],60.3 fL
same,MONOCYTE,[4],2%
same,NEUTROPHIL,[4],10%
same,PLATELET COUNT,[4],1018.67 x10E3/uL
same,ALANINE AMINOTRANSFERASE,[4],34.33 u/L
same,ALBUMIN,[4],3.6 G/DL
same,ALKALINE PHOSPHATASE,[4],348.33 u/L
same,ASPARTATE AMINOTRANSFERASE,[4],58 u/L
same,BLOOD UREA NITROGEN,[4],15 mg/dL
same,CHLORIDE,[4],101 MEQ/L
same,CHOLESTEROL,[4],62.67 mg/dL
same,CREATINE PHOSPHOKINASE,[4],122.67 u/L
same,CREATININE,[4],0.47 mg/dL
same,GLUCOSE,[4],155.33 mg/dL
same,PHOSPHORUS,[4],10 mg/dL
same,POTASSIUM,[4],6.3 MEQ/L
same,SODIUM,[4],144.67 MEQ/L
same,TOTAL BILIRUBIN,[4],0.37 mg/dL
same,TOTAL PROTEIN,[4],5.8 G/DL
